Measured values taken from ChEMBL document CHEMBL1201862, “PubChem BioAssay data set” (2004).
Activity calls are given as the source filed them.

What was measured:
HEK293 [1] = assay: cells; assay type: functional, cell-based; conditions: Homo sapiens
[2] = target: Nuclear receptor subfamily 0 group B member 1 (Homo sapiens, UniProt P51843); assay: Luminescence-based cell-based high throughput dose response assay for inhibitors of the orphan nuclear receptor subfamily 0, group B, member 1 (DAX1; NR0B1). [Related pubchem assays (depositor defined):AID504766, AID504790]; assay type: functional
Nuclear receptor subfamily 0 group B member 1, sequence (P51843 whole entry): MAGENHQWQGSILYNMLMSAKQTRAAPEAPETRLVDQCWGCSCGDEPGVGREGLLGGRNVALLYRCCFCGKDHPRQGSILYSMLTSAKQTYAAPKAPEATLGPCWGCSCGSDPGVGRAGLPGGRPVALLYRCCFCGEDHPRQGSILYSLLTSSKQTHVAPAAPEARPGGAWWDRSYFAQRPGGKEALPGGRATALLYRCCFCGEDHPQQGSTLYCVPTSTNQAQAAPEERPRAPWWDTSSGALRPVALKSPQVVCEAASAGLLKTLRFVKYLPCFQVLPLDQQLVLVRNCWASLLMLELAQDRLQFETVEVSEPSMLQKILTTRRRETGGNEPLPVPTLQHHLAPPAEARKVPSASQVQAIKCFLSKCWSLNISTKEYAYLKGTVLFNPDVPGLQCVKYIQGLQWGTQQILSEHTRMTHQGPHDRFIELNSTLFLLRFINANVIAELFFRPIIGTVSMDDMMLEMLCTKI

[3] = target: T1, Heat shock factor protein 1 (Mus musculus, UniProt P38532); assay: decrease of HSF1-responsive luciferase luminescence – cell-based, NIH3T3, dose retest, confirmation (AID 2382); assay type: functional;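 note: NIH3T3 fibroblasts with HSF1-driven luciferase reporter stressed by proteasome inhibitor MG132; luminescence from HSF1-driven luciferase expression after 8 hours of MG132 stress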
T1 sequence (P38532 whole entry): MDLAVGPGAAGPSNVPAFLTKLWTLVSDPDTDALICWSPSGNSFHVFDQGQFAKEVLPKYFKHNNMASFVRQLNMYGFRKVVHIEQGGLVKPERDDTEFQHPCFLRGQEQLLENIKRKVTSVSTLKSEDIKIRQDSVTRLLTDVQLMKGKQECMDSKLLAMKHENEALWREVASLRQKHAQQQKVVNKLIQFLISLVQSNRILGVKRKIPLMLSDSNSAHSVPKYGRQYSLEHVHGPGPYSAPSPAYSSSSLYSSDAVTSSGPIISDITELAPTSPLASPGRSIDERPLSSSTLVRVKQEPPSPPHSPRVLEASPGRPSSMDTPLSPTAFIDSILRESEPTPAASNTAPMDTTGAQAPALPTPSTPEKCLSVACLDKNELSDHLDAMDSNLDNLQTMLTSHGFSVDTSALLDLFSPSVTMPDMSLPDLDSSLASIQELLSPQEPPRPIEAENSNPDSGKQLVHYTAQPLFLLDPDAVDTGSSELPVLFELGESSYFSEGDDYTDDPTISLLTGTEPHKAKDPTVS

[4] = target: Delta-type opioid receptor (Homo sapiens, UniProt P41143); assay: Counterscreen for agonists of heterodimerization of the mu 1 (OPRM1) and delta 1 (OPRD1) opioid receptors: Luminescence-based cell-based high throughput dose response assay to identify agonists of OPRD1 homodimerization. [Related pubchem assays (depositor defined):AID504326, AID504355, AID504692, AID504904, AID504905]; assay type: functional
Delta-type opioid receptor, sequence (P41143 whole entry): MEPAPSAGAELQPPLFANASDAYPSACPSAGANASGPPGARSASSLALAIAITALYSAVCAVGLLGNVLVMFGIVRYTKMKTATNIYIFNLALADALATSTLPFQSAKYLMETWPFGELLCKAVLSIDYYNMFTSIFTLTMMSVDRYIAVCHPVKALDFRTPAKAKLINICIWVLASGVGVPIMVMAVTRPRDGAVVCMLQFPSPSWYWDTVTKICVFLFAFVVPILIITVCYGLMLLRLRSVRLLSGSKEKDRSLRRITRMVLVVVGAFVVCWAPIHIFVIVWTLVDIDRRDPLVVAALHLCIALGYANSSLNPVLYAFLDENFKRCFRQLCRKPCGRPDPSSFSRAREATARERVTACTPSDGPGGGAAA

Mu-type opioid receptor = Mu-type opioid receptor (Homo sapiens, UniProt P35372); assay: Counterscreen for agonists of heterodimerization of the mu 1 (OPRM1) and delta 1 (OPRD1) opioid receptors: Luminescence-based cell-based high throughput dose response assay to identify agonists of OPRM1 homodimerization.; assay type: functional;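 note: U2OS cells expressing OPRM1 and beta-arrestin as split beta-galactosidase partners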
Mu-type opioid receptor, sequence (P35372 whole entry): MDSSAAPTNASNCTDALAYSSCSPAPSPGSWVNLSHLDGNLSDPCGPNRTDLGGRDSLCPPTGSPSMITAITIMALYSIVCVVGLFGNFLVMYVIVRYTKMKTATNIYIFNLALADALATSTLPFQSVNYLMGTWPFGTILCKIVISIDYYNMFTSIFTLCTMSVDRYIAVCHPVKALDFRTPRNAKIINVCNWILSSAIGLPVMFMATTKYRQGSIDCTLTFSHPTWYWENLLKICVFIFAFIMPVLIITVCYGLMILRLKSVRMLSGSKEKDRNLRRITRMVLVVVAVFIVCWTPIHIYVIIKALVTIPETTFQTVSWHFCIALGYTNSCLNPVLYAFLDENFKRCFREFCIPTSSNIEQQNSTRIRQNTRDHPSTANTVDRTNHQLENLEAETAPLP

[5] = target: 5-hydroxytryptamine receptor 5A (Homo sapiens, UniProt P47898); assay: Counterscreen for agonists of OPRM1-OPRD1 heterodimerization: luminescence-based cell-based high throughput dose response assay to identify agonists of 5-hydroxytryptamine (serotonin) 5A receptor (HTR5A). [Related pubchem assays (depositor defined):AID504326, AID504355, AID504692, AID504904, AID504905]; assay type: functional
5-hydroxytryptamine receptor 5A, sequence (P47898 whole entry): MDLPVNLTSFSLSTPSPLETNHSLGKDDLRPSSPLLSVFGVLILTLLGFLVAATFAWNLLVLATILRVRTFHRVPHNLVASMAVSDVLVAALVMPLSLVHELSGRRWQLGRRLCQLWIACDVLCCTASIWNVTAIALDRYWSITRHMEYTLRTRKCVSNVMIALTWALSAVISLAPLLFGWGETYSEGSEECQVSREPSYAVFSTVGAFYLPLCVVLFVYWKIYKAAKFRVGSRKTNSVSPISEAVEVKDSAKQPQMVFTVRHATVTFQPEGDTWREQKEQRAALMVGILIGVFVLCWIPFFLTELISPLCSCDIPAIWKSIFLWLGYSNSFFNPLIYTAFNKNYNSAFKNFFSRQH

HEK293 [6] = assay: inhibition of NOD1-driven NF-kB reporter – cell-based, luminescence, uHTS, primary screen (AID 1578); assay type: functional; conditions: Homo sapiens
HEK293 [7] = assay: cells; assay type: functional, cell-based; conditions: Homo sapiens; remark: listed apart in the source
HEK293 [8] = assay: cells; assay type: functional, cell-based; conditions: Homo sapiens; remark: listed apart in the source
[9] = target: Nucleotide-binding oligomerization domain-containing protein 2 (Homo sapiens, UniProt Q9HC29); assay: inhibition of NOD2-driven NF-kB reporter – cell-based, luminescence, uHTS, HEK293 (AID 1566); assay type: functional
Nucleotide-binding oligomerization domain-containing protein 2, sequence (Q9HC29 whole entry, the tested form may be a part): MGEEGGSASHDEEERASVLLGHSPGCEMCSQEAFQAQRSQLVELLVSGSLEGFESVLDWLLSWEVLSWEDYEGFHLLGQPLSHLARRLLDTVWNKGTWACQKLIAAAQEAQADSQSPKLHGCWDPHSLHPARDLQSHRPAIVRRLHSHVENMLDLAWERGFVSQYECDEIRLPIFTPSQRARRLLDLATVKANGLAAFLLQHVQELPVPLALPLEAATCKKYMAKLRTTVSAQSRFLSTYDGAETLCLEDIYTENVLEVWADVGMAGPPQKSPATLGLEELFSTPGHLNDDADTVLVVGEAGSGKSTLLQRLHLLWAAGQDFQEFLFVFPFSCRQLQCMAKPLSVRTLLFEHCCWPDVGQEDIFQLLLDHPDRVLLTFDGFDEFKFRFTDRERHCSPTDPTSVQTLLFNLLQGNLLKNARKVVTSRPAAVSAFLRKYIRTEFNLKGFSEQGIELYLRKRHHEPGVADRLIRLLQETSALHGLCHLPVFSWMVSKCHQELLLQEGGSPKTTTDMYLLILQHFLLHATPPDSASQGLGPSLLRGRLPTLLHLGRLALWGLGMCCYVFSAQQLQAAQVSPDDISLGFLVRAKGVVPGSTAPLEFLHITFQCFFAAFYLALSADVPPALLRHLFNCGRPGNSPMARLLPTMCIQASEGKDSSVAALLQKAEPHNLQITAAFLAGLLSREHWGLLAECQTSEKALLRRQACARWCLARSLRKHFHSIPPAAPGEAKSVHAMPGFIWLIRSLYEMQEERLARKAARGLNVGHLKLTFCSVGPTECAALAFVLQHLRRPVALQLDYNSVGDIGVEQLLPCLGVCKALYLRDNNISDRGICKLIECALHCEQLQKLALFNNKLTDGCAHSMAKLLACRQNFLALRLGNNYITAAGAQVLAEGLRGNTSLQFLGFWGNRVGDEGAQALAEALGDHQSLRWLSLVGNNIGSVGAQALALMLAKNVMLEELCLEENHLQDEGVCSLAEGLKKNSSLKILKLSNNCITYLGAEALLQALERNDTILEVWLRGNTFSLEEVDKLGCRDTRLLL

HEK293 [10] = assay: NOD2 signaling inhibitors in MDP-stimulated cells, cell-based, uHTS, luminescence (AID 2001); assay type: functional; conditions: Homo sapiens
[11] = Trypanosoma cruzi growth suppression in host cells – NIH3T3 host cells, beta-gal luminescence, confirmation (AID 2044); assay type: functional, cell-based;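 note: intracellular parasites grown in NIH/3T3 mouse fibroblasts as host cells; luminescent beta-galactosidase reporter signal from transgenic T. cruzi replicating inside host cells; inhibitors lower the luminescence signal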
HEK293 [12] = assay: cells; assay type: functional, cell-based; conditions: Homo sapiens; remark: listed apart in the source
[13] = NIH3T3 cell viability loss – ATP luminescence, mouse fibroblasts, counter-screen, dose response (AID 2010); assay type: functional, cell-based;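 note: cells exposed to compound for about 90 hours before reading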
Beta-galactosidase = Beta-galactosidase (Escherichia coli, UniProt Q8VNN2); assay: detection-enzyme interference by beta-gal modulators – biochemical, E. coli enzyme, set 3, artefact control for CCR6 antagonist project, dose response (AID 504712); assay type: functional
Beta-galactosidase, sequence (Q8VNN2 whole entry): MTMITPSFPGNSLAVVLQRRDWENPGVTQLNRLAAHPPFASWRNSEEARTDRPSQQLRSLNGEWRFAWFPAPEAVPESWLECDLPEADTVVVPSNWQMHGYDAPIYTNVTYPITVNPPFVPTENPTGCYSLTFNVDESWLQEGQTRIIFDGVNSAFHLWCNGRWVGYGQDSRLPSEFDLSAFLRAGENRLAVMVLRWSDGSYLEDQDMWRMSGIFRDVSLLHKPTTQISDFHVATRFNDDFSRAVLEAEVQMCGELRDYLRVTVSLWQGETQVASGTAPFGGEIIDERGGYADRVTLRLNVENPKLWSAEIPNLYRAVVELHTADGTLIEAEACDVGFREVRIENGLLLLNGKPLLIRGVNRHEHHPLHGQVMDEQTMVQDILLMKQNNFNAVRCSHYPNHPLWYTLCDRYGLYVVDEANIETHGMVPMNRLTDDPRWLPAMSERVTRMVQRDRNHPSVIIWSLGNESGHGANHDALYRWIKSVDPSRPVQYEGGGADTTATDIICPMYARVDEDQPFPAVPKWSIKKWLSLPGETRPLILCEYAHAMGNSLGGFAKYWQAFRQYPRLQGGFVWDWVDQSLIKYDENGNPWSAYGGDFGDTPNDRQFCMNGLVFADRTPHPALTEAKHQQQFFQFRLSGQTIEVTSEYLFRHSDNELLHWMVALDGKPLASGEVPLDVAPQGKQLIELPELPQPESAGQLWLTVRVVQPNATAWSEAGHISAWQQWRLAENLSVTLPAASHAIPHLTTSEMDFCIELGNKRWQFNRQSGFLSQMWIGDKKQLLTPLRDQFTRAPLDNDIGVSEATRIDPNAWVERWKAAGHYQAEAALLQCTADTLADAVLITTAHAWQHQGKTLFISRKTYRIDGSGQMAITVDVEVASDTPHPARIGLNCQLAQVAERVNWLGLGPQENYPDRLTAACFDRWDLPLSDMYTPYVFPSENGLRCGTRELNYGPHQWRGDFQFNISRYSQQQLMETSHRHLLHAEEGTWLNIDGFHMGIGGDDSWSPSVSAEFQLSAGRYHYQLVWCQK

[14] = target: FAD-linked sulfhydryl oxidase ALR (Homo sapiens, UniProt P55789); assay: ALR-catalysed DTT oxidation blockers – biochemical, H2O2 detection, luminescence, cherry-pick, dose response (AID 493248)
FAD-linked sulfhydryl oxidase ALR, sequence (P55789 whole entry): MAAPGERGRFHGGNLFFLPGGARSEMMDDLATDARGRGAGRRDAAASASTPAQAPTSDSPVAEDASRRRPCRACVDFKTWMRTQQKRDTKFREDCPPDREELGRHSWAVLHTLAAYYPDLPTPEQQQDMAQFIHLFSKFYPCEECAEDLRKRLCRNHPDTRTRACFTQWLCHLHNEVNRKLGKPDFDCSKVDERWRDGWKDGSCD

[15] = target: Heat shock protein HSP 90-alpha (Homo sapiens, UniProt P07900); assay type: functional, organism-based
Apelin receptor = Apelin receptor (Homo sapiens, UniProt P35414); assay: apelin receptor antagonists, arrestin read-out – cell-based, luminescent, enzyme-fragment complementation, selectivity assay for CCR6 antagonist project, SAR follow-up (AID 588359); assay type: functional
Apelin receptor, sequence (P35414 whole entry, the tested form may be a part): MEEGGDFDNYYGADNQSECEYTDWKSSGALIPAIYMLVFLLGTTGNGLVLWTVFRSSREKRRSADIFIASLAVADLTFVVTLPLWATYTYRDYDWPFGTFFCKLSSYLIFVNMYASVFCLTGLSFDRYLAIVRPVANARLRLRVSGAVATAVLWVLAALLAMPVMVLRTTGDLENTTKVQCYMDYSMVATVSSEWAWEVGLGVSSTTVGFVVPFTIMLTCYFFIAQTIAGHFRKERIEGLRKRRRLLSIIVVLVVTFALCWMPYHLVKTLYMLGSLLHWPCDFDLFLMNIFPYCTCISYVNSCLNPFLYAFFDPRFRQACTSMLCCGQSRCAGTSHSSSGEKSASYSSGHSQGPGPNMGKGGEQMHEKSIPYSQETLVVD

INS1 = assay: INS-1E survival protection against cytokine death – cell-based, luminescence, retest, dose response (AID 449756); assay type: functional; conditions: Rattus norvegicus;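 note: cell death triggered by IL-1 beta plus TNF-alpha plus IFN-gamma mixture; protective hits raise ATP signal compared with cytokine alone wells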
[16] = reduction of Shn3 3'UTR-driven luciferase in osteoblasts – cell-based, Clone20 osteoblasts, firefly luciferase, cherry-picked, dose response (AID 624132); assay type: functional;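 note: firefly luciferase luminescence from reporter carrying the Shn3 3'UTR in osteoblasts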
[17] = loss of viability in HepG2 cells – cell-based, CellTiter-Glo, cherry-picked, cytotoxicity control for Shn3 inhibitor project, dose response (AID 624134); assay type: functional
[18] = non-specific 3'UTR reporter inhibition in Clone20-Shn3RL – cell-based, Renilla luciferase, cherry-picked, counter-screen for Shn3 inhibitor project, dose response (AID 624133); assay type: functional
[19] = Fluorescence-based cell-based high throughput dose response assay for inhibitors of the interaction of nucleotide-binding oligomerization domain containing 2 (NOD2) and the receptor-interacting serine-threonine kinase 2 (RIPK2).; assay type: functional; conditions: Homo sapiens
[20] = activation of miR-122 Renilla sensor silencing – cell-based, Huh7 psiCHECK-miR122, Renilla luciferase, cherry-picked, dose response (AID 651956); assay type: functional;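 note: huh7 hepatoma cells stably carrying a psiCHECK-2 miR-122 sensor plasmid; renilla luciferase signal reporting endogenous miR-122 activity after 48 h compound exposure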
[21] = general mammalian cell viability loss – inhibitor set, cherry-pick, set 2, cytotoxicity control for miR-122 modulator project, dose response (AID 720697); assay type: functional, cell-based
[22] = general mammalian cell viability loss – activator set, cherry-pick, cytotoxicity control for miR-122 modulator project, dose response (AID 720690); assay type: functional, cell-based;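 note: HEK293T human cells scored for general mammalian cytotoxicity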

O=C(COc1ccc(Cl)cc1Cl)c1ccc[nH]1
inactive: IC50 (HEK293 [1]) > 67.6 µM | IC50 [2] > 67.6 µM

COc1ccc(/C=C/C(=O)NC(=S)NCCc2ccc(OC)c(OC)c2)cc1
inactive: EC50 [4] > 92.5 µM | EC50 (Mu-type opioid receptor) > 92.5 µM | EC50 [5] > 92.5 µM
active: EC50 [3] 13.6 µM

Cc1ccc(S(=O)(=O)c2ccc([N+](=O)[O-])cn2)cc1
active: EC50 (HEK293 [6]) 6.69 µM | IC50 (HEK293 [7]) 5.37 µM | IC50 (HEK293 [10]) 6.5 µM | EC50 [11] 2.38 µM | EC50 [13] 3.42 µM | AC50 [14] 15.3 µM | AC50 [15] 4.18 µM | AC50 [16] 3.85 µM | AC50 [17] 12.1 µM | AC50 [18] 3.26 µM | IC50 [19] 6.33 µM | AC50 [20] 10.6 µM | AC50 [21] 7.35 µM | AC50 [22] 4.36 µM
inactive: IC50 (HEK293 [8]) > 20 µM | EC50 [9] > 20 µM | IC50 (HEK293 [12]) > 20 µM | IC50 (Beta-galactosidase) > 66.6 µM | IC50 (Apelin receptor) 23.4 µM | AC50 (INS1) > 260 µM
